Experimental data as given in patent publication US4874777A, “Leukotriene antagonists” (Eli Lilly and Company, priority 1987, dated 1989).

Test system: LTD4 evoked ileal contractions
Assay: LTD4 antagonism in isolated guinea pig ileum (inhibition of LTD4 evoked ileal contractions)
Type: cell-based, guinea pig (male, Hartley)
Details: Cavia porcellus; for IC50: 50% inhibition of LTD4 responses, interpolated by linear regression from 2-4 concentrations; for inhibition at 0.3 µM: compound concentration 3 × 10^-7 M; for inhibition at 0.3 µM / inhibition at 0.03 µM / inhibition at 0.1 µM / inhibition at 0.01 µM / inhibition at 0.003 µM: read-out: Percent inhibition of LTD4 evoked ileal contractions; for inhibition at 0.03 µM: compound concentration 3 × 10^-8 M; for inhibition at 0.1 µM: compound concentration 1 × 10^-7 M; for inhibition at 0.01 µM: compound concentration 1 × 10^-8 M; for inhibition at 0.003 µM: compound concentration 3 × 10^-9 M
Method: Male, Hartley guinea pigs weighing 200-450 grams were killed by decapitation. A section of terminal ileum was removed, the lumen cleaned, and the tissue divided into 2.5 cm. segments. The ilea were mounted in 10 ml. tissue baths containing Krebs-bicarbonate solution of the following composition in mmoles/liter: KCl, 4.6; CaCl2 ·H2 O, 1.2; KH2 PO4, 1.2; MgSO4 ·7H2 O, 1.2; NaCl, 118.2; NaHCO3, 24.8; and dextrose, 10.0. The bath fluid was maintained at 37° C. and aerated with 95 percent oxygen and 5 percent CO2. In addition, the buffer contained 1×10^-6 M atropine to reduce ileal spontaneous activity. Isometric measurements were made with a Grass FTO3C force-displacement transducer and recorded on a Gras polygraph as change in grams of force. A passive force of 0.5 g. was applied to the tissues. After an appropriate equilibration period, single submaximal control responses to pure LTD4 were obtained. Following a five minute exposure of the ileum to an experimental drug, the control concentration of LTD4 was added to the tissue bath. The response of the ileum to LTD4 in the presence of the drug was compared to the response in the absence of the drug. Various degrees of LTD4 antagonism were obtained using 2-4 different concentrations of an experimental compound on a single ileum.

| IC50 [nM] | SMILES | inhibition at 0.3 µM [%] | inhibition at 0.03 µM [%] | inhibition at 0.1 µM [%] | inhibition at 0.01 µM [%] | inhibition at 0.003 µM [%] |
| --- | --- | --- | --- | --- | --- | --- |
| 33.1 | CCCc1c(COc2ccc(C(=O)CCC(=O)O)cc2)ccc(C(C)=O)c1O [Example 1, 4-[(4-Acetyl-3-hydroxy-2-propylphenyl)methoxy]-γ-oxobenzenebutanoic acid] | 97 | 48 | – | – | – |
| 15.8 | CCCc1c(COc2ccc(C(=O)CCCCC(=O)O)cc2)ccc(C(C)=O)c1O [Example 5, 4-[(4-Acetyl-3-hydroxy-2-propylphenyl)methoxy]-ε-oxobenzenehexanoic acid] | – | 63 | 86 | 40 | – |
| 18.6 | CCCc1c(COc2ccc(C(=O)CC(C)(C)CC(=O)O)cc2)ccc(C(C)=O)c1O [Example 6, 4-[(4-Acetyl-3-hydroxy-2-propylphenyl)methoxy]-β,β-dimethyl-δ-oxobenzenepentanoic acid] | – | – | 78 | 41 | 16 |
| 37.2 | CCCc1c(COc2ccc(C(=O)CCCC(=O)O)cc2)ccc(C(C)=O)c1O [Example 7, 4-[(4-Acetyl-3-hydroxy-2-propylphenyl)methoxy]-δ-oxobenzenepentanoicacid] | – | – | 68 | 17 | – |
| 21.9 | CCCc1c(COc2ccc(C(=O)Cc3nnn[nH]3)cc2)ccc(C(C)=O)c1O [Example 8, 1-{4-[(4-acetyl-3-hydroxy-2-propylphenyl)methoxy]phenyl}-2-(1H-tetrazol-5-yl)ethanone] | – | 54 | – | 40 | – |
| 24.5 | CCCc1c(COc2ccc(C(=O)CCCc3nnn[nH]3)c(O)c2)ccc(C(C)=O)c1O [Example 13, 1-{4-[(4-Acetyl-3-hydroxy-2-propylphenyl)methoxy]-2-hydroxyphenyl}-4-(1H-tetrazol-5-yl)-1-butanone] | 82 | – | – | 28 | – |
| 13.5 | CCCc1c(COc2ccc(C(=O)CC3(CC(=O)O)CCCC3)cc2)ccc(C(C)=O)c1O [Example 24, 1-(2-{4-[(4-Acetyl-3-hydroxy-2-propylphenyl)methoxy]phenyl}-2-oxoethyl)cyclopentaneacetic acid] | – | 74 | 85 | 35 | – |
| 10.2 | CCCc1c(COc2ccc3c(c2)CCC(CC(=O)O)C3=O)ccc(C(C)=O)c1O (stereo not shown) [Example 28, 6-[(4-Acetyl-3-hydroxy-2-propylphenyl)methoxy]-1,2,3,4-tetrahydro-1-oxo-2-naphthaleneacetic acid] | – | – | – | – | – |
| 75.9 | CCCc1c(COc2ccc3c(c2)C(=O)C(CC(=O)O)CC3)ccc(C(C)=O)c1O (stereo not shown) [Example 29, 7-[(4-Acetyl-3-hydroxy-2-propylphenyl)methoxy]-1,2,3,4-tetrahydro-1-oxo-2-naphthaleneacetic acid] | – | – | – | – | – |

The remaining lines, values behind:

| SMILES | IC50 [nM] | inhibition at 0.3 µM [%] | inhibition at 0.03 µM [%] | inhibition at 0.1 µM [%] | inhibition at 0.01 µM [%] | inhibition at 0.003 µM [%] |
| --- | --- | --- | --- | --- | --- | --- |
| CCCc1c(COc2ccc(C(=O)CCc3nnn[nH]3)cc2)ccc(C(C)=O)c1O [Example 9, 1-{4-[(4-Acetyl-3-hydroxy-2-propylphenyl)methoxy]phenyl}-3-(1H-tetrazol-5-yl)-1-propanone] | 26.3 | 91 | 54 | 85 | 25 | – |
| CCCc1c(COc2ccc(C(=O)CCCc3nnn[nH]3)cc2)ccc(C(C)=O)c1O [Example 10, 1-{4-[(4-Acetyl-3-hydroxy-2-propylphenyl)methoxy]-phenyl}-4-(1H-tetrazol-5-yl)-1-butanone] | 4.79 | 94 | 76 | 95 | 57 | 46 |
| CCCc1c(COc2ccc(C(=O)CCCCc3nnn[nH]3)cc2)ccc(C(C)=O)c1O [Example 11, 1-{4-[(4-Acetyl-3-hydroxy-2-propylphenyl)methoxy]phenyl}-5-(1H-tetrazol-5-yl)-1-pentanone] | 24.5 | – | 51 | – | 43 | – |
| CCCc1c(COc2ccc(C(=O)C(C)(C)Cc3nnn[nH]3)cc2)ccc(C(C)=O)c1O [Example 12, 1-{4-[(4-Acetyl-3-hydroxy-2-propylphenyl)methoxy]phenyl}-2,2-dimethyl-3-(1H-tetrazol-5-yl)-1-propanone] | 51.3 | 60 | 41 | – | – | – |
| CCCc1c(COc2ccc(C(=O)C(C)Cc3nnn[nH]3)cc2)ccc(C(C)=O)c1O (stereo not shown) [Example 14, 1-{4-[(4-Acetyl-3-hydroxy-2-propylphenyl)methoxy]phenyl}-2-methyl-3-(1H-tetrazol-5-yl)-1-propanone] | 20.4 | – | 58 | – | 35 | – |
| CCCc1c(COc2ccc(C(=O)CC(C)(C)Cc3nnn[nH]3)cc2)ccc(C(C)=O)c1O [Example 15, 1-{4-[(4-Acetyl-3-hydroxy-2-propylphenyl)methoxy]phenyl}-3,3-dimethyl-4-(1H-tetrazol-5-yl)-1-butanone] | 3.24 | – | 91 | – | – | 50 |
| CCc1c(COc2ccc(C(=O)CC(C)(C)Cc3nnn[nH]3)cc2)ccc(C(C)=O)c1O [Example 16, 1-{4-[(4-Acetyl-3-hydroxy-2-ethylphenyl)methoxy]phenyl}-3,3-dimethyl-4-(1H-tetrazol-5-yl)-1-butanone] | 4.79 | – | – | 95 | 63 | 41 |
| CCCc1c(COc2cccc(C(=O)CCCc3nnn[nH]3)c2)ccc(C(C)=O)c1O [Example 18, 1-{3-[(4-Acetyl-3-hydroxy-2-propylphenyl)methoxy]phenyl}-4-(1H-tetrazol-5-yl)-1-butanone] | 18.2 | – | 65 | 84 | 34 | – |
| CCCc1c(COc2ccc(C(=O)CCCCCc3nnn[nH]3)cc2)ccc(C(C)=O)c1O [Example 19, 1-{4-[(4-Acetyl-3-hydroxy-2-propylphenyl)methoxy]phenyl}-6-(1H-tetrazol-5-yl)-1-hexanone] | 32.4 | – | 47 | 80 | – | – |
| CCc1c(COc2ccc(C(=O)CC(C)(C)CC(=O)O)cc2)ccc(C(C)=O)c1O [Example 23, 4-[(4-Acetyl-2-ethyl-3-hydroxyphenyl)methoxy]-β,β-dimethyl-δ-oxobenzenepentanoic acid] | 21.4 | – | 66 | 88 | 25 | – |
